Data set [1] concerns Bacillus subtilis ATCC 6633. The experiment in a line: Minimum growth inhibiting concentration, Japan Chemotherapeutic Society method. Particulars: ATCC6633; Bacillus subtilis ATCC 6633, Gram +; 5% horse blood added agar medium; read-out: Minimum Growth Inhibiting Concn. The class given is cell-based. How it is done: (§1) The Antibacterial activity of the compounds of Examples 14, 13, 22b, 21 and 15 was determined in accordance with the method of Japan Chemotherapeutic Society (cf. Nippon Kagaku Ryoho Gakkai Shi, volume 29, number 1, pages 76 to 79, 1981) and the results are reported in Table 1, which follows. | *5% Horse blood added agar medium for sensitivity measurement being used.

Data set [2] deals with Streptococcus pneumoniae Type I. The description is as above. The class given is cell-based. Particulars: Gram +, 5% horse blood added agar medium, read-out: Minimum Growth Inhibiting Concn. The method, then:
as §1

For data set [3], the system named is Streptococcus pyogenes S-23. Described as above. The class given is cell-based. Particulars: S23; Streptococcus pyogenes S-23, Gram +; 5% horse blood added agar medium; read-out: Minimum Growth Inhibiting Concn. The method, then: as §1
In data set [4] the test system is Acinetobacter calcoacelicus 54. The description is as above. The following applies: Acinetobacter calcoacelicus 54, Gram -; read-out: Minimum Growth Inhibiting Concn. The class given is cell-based. The method, then:
(§2) The Antibacterial activity of the compounds of Examples 14, 13, 22b, 21 and 15 was determined in accordance with the method of Japan Chemotherapeutic Society (cf. Nippon Kagaku Ryoho Gakkai Shi, volume 29, number 1, pages 76 to 79, 1981) and the results are reported in Table 1, which follows.

Data set [5] deals with Klebsiella pneumoniae K-1966. The data set is described as above. The class given is cell-based. Particulars: K1966; Klebsiella pneumoniae K-1966, Gram -; read-out: Minimum Growth Inhibiting Concn. How it is done: as §2
The nature of data set [6]: Excretion into urine and recovery, disc method. The class given is in vivo, ddY strain mice. The following applies: 60 mg/kg per os; for Amount excreted into Urine: average ± standard error. How it is done: In the measurement of excretion into urine, ddY strain mice (male; body weights 30±2 grams) were used. Sixty mg/kg of the compound of Example 22b was administered per os and the mice were fed in metabolic cages and their urine was collected.
Therefore, in the quantitative determination, the calibration curve of the compound of Example 21, calculated by the disc method using Escherichia coli NIHJ strain and using the compound dissolved in phosphoric acid buffer (pH 8.0; 1/15M) was used. Table 5 reports the excretion into urine with respect to time, total recovery amount and recovery rate of the compound of Example 22b.

Another data set can be described thus: Acute toxicity. Particulars: mouse, in vivo; oral, groups of ten ddY male mice; read-out: 50% Lethal Doses (LD50). How it is done: Groups of ten ddY strain male mice (body weights: 20±1 grams) of the test compound were orally administered to determine the LD50. There was […] in which many mice died when the dose was 2000 mg/kg or less.

SMILES strings stand for the structures. In brackets after ≈: the same amount, converted by molar mass. Entries after “also recorded” stand apart in the source; their conditions may differ. Some results are limits rather than exact numbers.

As for `Cc1csc2c(C(=O)O)c(=O)c3cc(F)c(N4CCN(C)CC4)cc3n12` [Example 22b, 7-fluoro-1-methyl-8-(4-methyl-1-piperazinyl)-5-oxo-5H-thiazolo(3,2-a)-quinoline-4-carboxylic acid], the MIC in data set [1] was 0.0008 µg/mL (≈ 0.00213 µM); in data set [2], 0.39 µg/mL (≈ 1.04 µM); in data set [3], 0.2 µg/mL (≈ 0.533 µM); in data set [4], 0.2 µg/mL (≈ 0.533 µM); in data set [5] it was 0.05 µg/mL (≈ 0.133 µM). Also, the entries for the “Amount excreted into Urine” value in data set [6] (0-3 hrs), in data set [6] (3-6 hrs) and in data set [6] (6-24 hrs) were 268.1 ± 84.4 µg, 108.3 ± 33.1 µg and 437.5 ± 21.8 µg, respectively. The “Total Recovery in urine” value in data set [6] (0-24 hrs) is 813.9 µg. Besides, in data set [6] (mice), the “excretion into urine (in words)” value is “excreted into urine almost completely; also recorded: excreted into urine promptly and in high concentration which is continued and exhibits high recovery rate”. Also, the “metabolism (in words)” value in data set [6] (mice) is “metabolized to the compound of Example 21”. Further, in the data set “Acute toxicity”, the LD50 was over 2000 mg/kg.

The record behind these values is patent US4659734A, “Olinecarboxylic acid derivatives” (Nippon Shinyaku Co., Ltd., priority 1983, dated 1987).
